Reference: ChEMBL document CHEMBL4359906, “Design and synthesis of new N-terminal fatty acid modified-antimicrobial peptide analogues with potent in vitro biological activity” (Eur J Med Chem, 2019)
Values after ≈ are worked out from the molar mass of the structure shown. Active and inactive are the calls of the source. No cut-off for these calls is given here.

How the values were obtained:
Staphylococcus aureus [1] = test: Antibacterial activity against Staphylococcus aureus ATCC 25923 after 18 hrs in presence of KCl by CLSI based broth microdilution method (reference value: 8 microM); type: functional; conditions: ATCC 25923, 18 h
Escherichia coli [2] = test: Ratio of antibacterial activity against Escherichia coli ATCC 25922 in presence of KCl to antibacterial activity against Escherichia coli ATCC 25922; type: functional
Escherichia coli [3] = test: Ratio of antibacterial activity against Escherichia coli ATCC 25922 in presence of FeCl3 to antibacterial activity against Escherichia coli ATCC 25922; type: functional
Escherichia coli [4] = test: Antibacterial activity against Escherichia coli ATCC 25922 after 18 hrs in presence of FeCl3 by CLSI based broth microdilution method (reference value: 16 microM); type: functional; conditions: ATCC 25922, 18 h
Staphylococcus aureus [5] = test: Antibacterial activity against Staphylococcus aureus ATCC 25923 after 18 hrs by CLSI based broth microdilution method; type: functional; conditions: ATCC 25923, 18 h
Staphylococcus aureus [6] = test: Antibacterial activity against Staphylococcus aureus ATCC 25923 after 18 hrs in presence of NaCl by CLSI based broth microdilution method (reference value: 8 microM); type: functional; conditions: ATCC 25923, 18 h
Escherichia coli [7] = test: Antibiofilm activity against Escherichia coli ATCC 25922 assessed as reduction in biofilm inhibition at 0.5 to 1 times of MIC after 24 hrs by crystal violet staining based assay; type: functional, organism-based
Staphylococcus aureus [8] = test: Antibacterial activity against Staphylococcus aureus ATCC 25923 after 18 hrs in presence of FeCl3 by CLSI based broth microdilution method (reference value: 8 microM); type: functional; conditions: ATCC 25923, 18 h
Staphylococcus aureus [9] = test: Antibacterial activity against Staphylococcus aureus ATCC 25923 after 18 hrs in presence of MgCl2 by CLSI based broth microdilution method (reference value: 8 microM); type: functional; conditions: ATCC 25923, 18 h
Escherichia coli [10] = test: Antibacterial activity against Escherichia coli ATCC 25922 after 18 hrs by CLSI based broth microdilution method; type: functional; conditions: ATCC 25922, 18 h
Staphylococcus aureus [11] = test: Antibiofilm activity against Staphylococcus aureus ATCC 25923 at 2 times of MIC after 24 hrs by crystal violet staining based assay; type: functional, organism-based
Escherichia coli [12] = test: Antimicrobial activity against Escherichia coli ATCC 25922 preincubated for 1 hr in presence of 10% mouse serum and measured after 18 hrs by CLSI-based broth microdilution assay (reference value: 16 microM); type: functional
Escherichia coli [13] = test: Disruption of membrane integrity in Escherichia coli ATCC 25922 assessed as membrane damage by measuring PI fluorescence incubated for 1 hr by PI dye based flow cytometric analysis; type: functional, organism-based
Escherichia coli [14] = test: Antibacterial activity against Escherichia coli ATCC 25922 after 18 hrs in presence of NaCl by CLSI based broth microdilution method (reference value: 16 microM); type: functional; conditions: ATCC 25922, 18 h
Escherichia coli [15] = test: Antibacterial activity against Escherichia coli ATCC 25922 after 18 hrs in presence of KCl by CLSI based broth microdilution method (reference value: 16 microM); type: functional; conditions: ATCC 25922, 18 h
[16] = Cytotoxicity against mouse RAW264.7 cells assessed as cell proliferation at 16 uM after 1 hr by MTT assay relative to control; type: cell-based; conditions: read-out: Activity
Escherichia coli [17] = test: Antimicrobial activity against Escherichia coli ATCC 25922 preincubated for 6 hrs in presence of 10% mouse serum and measured after 18 hrs by CLSI-based broth microdilution assay (reference value: 16 microM); type: functional
Escherichia coli [18] = test: Antibacterial activity against Escherichia coli ATCC 25922 after 18 hrs in presence of MgCl2 by CLSI based broth microdilution method (reference value: 16 microM); type: functional; conditions: ATCC 25922, 18 h
DNA = test: Binding affinity to Escherichia coli ATCC 25922 genomic DNA at 4 x MIC after 30 mins by agarose gel electrophoresis; type: nucleic-acid assay
[19] = Cytotoxicity against mouse RAW264.7 cells assessed as cell proliferation at 64 uM after 1 hr by MTT assay relative to control; type: cell-based; conditions: read-out: Activity
[20] = Cytotoxicity against mouse RAW264.7 cells assessed as cell proliferation at 4 uM after 1 hr by MTT assay relative to control; type: cell-based; conditions: read-out: Activity
Escherichia coli [21] = test: Antimicrobial activity against Escherichia coli ATCC 25922 preincubated for 1 hr in presence of 10% mouse serum and measured after 18 hrs by CLSI-based broth microdilution assay (reference value: 8 microM); type: functional
Escherichia coli [22] = test: Antibacterial activity against Escherichia coli ATCC 25922 after 18 hrs in presence of NaCl by CLSI based broth microdilution method (reference value: 8 microM); type: functional; conditions: ATCC 25922, 18 h
Escherichia coli [23] = test: Antibacterial activity against Escherichia coli ATCC 25922 after 18 hrs in presence of KCl by CLSI based broth microdilution method (reference value: 8 microM); type: functional; conditions: ATCC 25922, 18 h
Escherichia coli [24] = test: Antimicrobial activity against Escherichia coli ATCC 25922 preincubated for 6 hrs in presence of 10% mouse serum and measured after 18 hrs by CLSI-based broth microdilution assay (reference value: 8 microM); type: functional
Escherichia coli [25] = test: Antibacterial activity against Escherichia coli ATCC 25922 after 18 hrs in presence of FeCl3 by CLSI based broth microdilution method (reference value: 8 microM); type: functional; conditions: ATCC 25922, 18 h
Staphylococcus aureus [26] = test: Antibiofilm activity against Staphylococcus aureus ATCC 25923 at 1 to 2 times of MIC after 24 hrs by crystal violet staining based assay; type: functional, organism-based
Escherichia coli [27] = test: Antibacterial activity against Escherichia coli ATCC 25922 after 18 hrs in presence of MgCl2 by CLSI based broth microdilution method (reference value: 8 microM); type: functional; conditions: ATCC 25922, 18 h
Escherichia coli [28] = test: Antibiofilm activity against Escherichia coli ATCC 25922 assessed as reduction in biofilm inhibition at MIC after 24 hrs by crystal violet staining based assay relative to control; type: functional

CCCCCCCCCC(=O)NCC(=O)N[C@@H](CC(C)C)C(=O)N[C@@H](CC(C)C)C(=O)N[C@H](CCCCN)C(=O)N[C@@H](CCCNC(=N)N)C(=O)N[C@H](C(=O)N[C@H](CCCCN)C(=O)N[C@H](C(=O)N[C@@H](CC(C)C)C(=O)N[C@@H](CC(C)C)C(N)=O)[C@@H](C)O)[C@@H](C)CC
MIC (Staphylococcus aureus [1]): 8 µM | Ratio (Escherichia coli [2]): 2 - 4 | Ratio (Escherichia coli [3]): 2 - 4 | MIC (Escherichia coli [4]): 8 µM | MIC (Staphylococcus aureus [5]): 8 µM (≈ 10.5 µg/mL) | MIC (Staphylococcus aureus [6]): 8 µM | inhibition (Escherichia coli [7]): Active | MIC (Staphylococcus aureus [8]): 8 µM | MIC (Staphylococcus aureus [9]): 8 µM | MIC (Escherichia coli [10]): 16 µM (≈ 20.9 µg/mL) | inhibition (Staphylococcus aureus [11]): Active | MIC (Escherichia coli [12]): 16 µM | Activity (Escherichia coli [13]): Dose-dependent effect | MIC (Escherichia coli [14]): 32 µM | MIC (Escherichia coli [15]): 16 µM | viability at 1 h, 16 µM [16]: < 80% | MIC (Escherichia coli [17]): 16 µM | MIC (Escherichia coli [18]): 16 µM

CCCCCCCC(=O)NCC(=O)N[C@@H](CC(C)C)C(=O)N[C@@H](CC(C)C)C(=O)N[C@H](CCCCN)C(=O)N[C@@H](CCCNC(=N)N)C(=O)N[C@H](C(=O)N[C@H](CCCCN)C(=O)N[C@H](C(=O)N[C@@H](CC(C)C)C(=O)N[C@@H](CC(C)C)C(N)=O)[C@@H](C)O)[C@@H](C)CC
Ratio (Escherichia coli [2]): 2 - 4 | Ratio (Escherichia coli [3]): 2 - 4 | MIC (Staphylococcus aureus [5]): 32 µM (≈ 41 µg/mL) | inhibition (Escherichia coli [7]): Active | MIC (Escherichia coli [10]): 64 µM (≈ 81.9 µg/mL) | Activity (DNA): Active | inhibition (Staphylococcus aureus [11]): Active | Activity (Escherichia coli [13]): Dose-dependent effect | viability at 1 h, 64 µM [19]: > 80%

CCCCCCCCCC(=O)NC(Cc1cn(CCCC[C@H](NC(C)=O)C(=O)NCC(=O)N[C@@H](CC(C)C)C(=O)N[C@@H](CC(C)C)C(=O)N[C@H](CCCCN)C(=O)N[C@@H](CCCNC(=N)N)C(=O)N[C@H](C(=O)N[C@H](CCCCN)C(=O)N[C@H](C(=O)N[C@@H](CC(C)C)C(=O)N[C@@H](CC(C)C)C(N)=O)[C@@H](C)O)[C@@H](C)CC)nn1)C(=O)NCC(=O)N[C@@H](CC(C)C)C(=O)N[C@@H](CC(C)C)C(=O)N[C@H](CCCCN)C(=O)N[C@@H](CCCNC(=N)N)C(=O)N[C@H](C(=O)N[C@H](CCCCN)C(=O)N[C@H](C(=O)N[C@@H](CC(C)C)C(=O)N[C@@H](CC(C)C)C(N)=O)[C@@H](C)O)[C@@H](C)CC (stereo not given in full)
viability at 1 h, 4 µM [20]: < 80% | MIC (Escherichia coli [21]): 8 µM | MIC (Staphylococcus aureus [1]): 16 µM | Ratio (Escherichia coli [2]): 2 - 4 | MIC (Escherichia coli [22]): 8 µM | MIC (Escherichia coli [23]): 16 µM | MIC (Escherichia coli [24]): 16 µM | Ratio (Escherichia coli [3]): 2 - 4 | MIC (Staphylococcus aureus [5]): 8 µM (≈ 22 µg/mL) | MIC (Staphylococcus aureus [6]): 8 µM | MIC (Staphylococcus aureus [8]): 8 µM | MIC (Escherichia coli [25]): 4 µM | MIC (Staphylococcus aureus [9]): 4 µM | MIC (Escherichia coli [10]): 8 µM (≈ 22 µg/mL) | Activity (Escherichia coli [13]): Dose-dependent effect | inhibition (Staphylococcus aureus [26]): Active | MIC (Escherichia coli [27]): 16 µM | inhibition (INH) (Escherichia coli [28]): >50%
